# Laboratory results from ChEMBL document CHEMBL5532708, “Tetrahydroxanthene-1,3(2H)-diones and Oxidized Hexadiene Derivatives from Uvaria leptopoda and Their Biological Activities” (J Nat Prod, 2024).
# Experiments:
# [1] = Cytotoxicity against human Lu1 cells assessed as inhibition of cell growth incubated for 72 hrs by SRB assay; format: functional, cell-based; conditions: Lu1, 72 h
# SNU1 = test: Cytotoxicity against human SNU1 cells assessed as reduction in cell viability incubated for 24 hrs by MTT assay; format: functional, cell-based; conditions: SNU1, 24 h
# [2] = Cytotoxicity against mouse RAW264.7 cells assessed as cell viability at 15 uM incubated for 24 hrs by MTT assay relative to control; format: toxicity, cell-based; conditions: read-out: Activity
# RAW264.7 [3] = test: Antiinflammatory activity in mouse RAW264.7 cells assessed as inhibition of LPS-induced NO production at 15 uM incubated for 24 hrs by Griess reagent based analysis relative to control; format: functional; design: scale not given: the % may be the effect or the level left
# Plasmodium falciparum = test: Antiplasmodial activity against multidrug resistant Plasmodium falciparum K1 assessed as reduction in parasite growth by [3H]-hypoxanthine incorporation assay; format: functional, organism-based
# KB = test: Cytotoxicity against human KB cells by SRB assay; format: functional, cell-based
# RAW264.7 [4] = test: Antiinflammatory activity in mouse RAW264.7 cells assessed as inhibition of LPS-induced NO production incubated for 24 hrs by Griess reagent based analysis; format: functional, cell-based; conditions: RAW264.7, 24 h
Structure (SMILES),IC50 (SNU1) [µM],"viability at 24 h, 15 µM [2] [%]",Activity (RAW264.7 [3]) [%],other results
CC(C)[C@@H](C)/C=C/[C@@H](C)[C@H]1CCC2=C3C=CC4=CC(=O)CC[C@]4(C)[C@H]3CC[C@@]21C,–,–,–,IC50 [1]: 10.2 µg/mL
COc1cc(OC)c(C(=O)/C=C/c2ccccc2)c(O)c1OC,11,> 90,-11,–
COc1cc(OC)c([C@@H]2Oc3c(OC)c(OC)cc(OC)c3[C@@H](/C=C/c3ccccc3)[C@H]2C(=O)c2ccccc2)c(O)c1OC,–,–,–,IC50 (Plasmodium falciparum): 3.02 µg/mL
COc1ccc2c(c1)C[C@]1(OC)C(=O)/C(=C(/O)[C@H]3[C@H](c4ccccc4)[C@H](/C(O)=C4/C(=O)C[C@@]5(OC)Oc6ccc(OC)cc6C[C@@]5(OC)C4=O)[C@H]3c3ccccc3)C(=O)C[C@]1(OC)O2,18,> 90,6.5,–
CC(=O)OC[C@@](O)(COC(=O)c1ccccc1)[C@@H](O)/C=C\COC(=O)c1ccccc1,82,> 90,14,–
COc1ccc2c(c1)C[C@H]1[C@@H](OC(=O)c3ccccc3)[C@H](OC(C)=O)C(COC(=O)c3ccccc3)=C[C@H]1O2,130,> 90,15,–
COc1cc2cc(-c3ccc(O)cc3)ccc2cc1O,–,–,–,IC50 (KB): 5.05 µM
CC(=O)OC[C@@]1(COC(=O)c2ccccc2)O[C@H]1/C=C\COC(=O)c1ccccc1,37,> 90,12,–
O=C1c2cc(O)ccc2-c2c3c(cc4ccnc1c24)OCO3,–,–,–,IC50 [1]: 9.22 µg/mL
COc1ccc2c(c1)C[C@]1(OC)C(=O)/C(=C(O)\C=C\c3ccccc3)C(=O)C[C@]1(OC)O2 (racemic),34,> 90,73,IC50 (RAW264.7 [4]): 6.7 µM
O=C(O)Cc1ccccc1Nc1c(Cl)cccc1Cl [DICLOFENAC SODIUM],–,–,–,IC50 (RAW264.7 [4]): 331 µM
